Experimental findings from patent US12612395B2, “Rocaglate derivatives and uses thereof” (TRUSTEES OF BOSTON UNIVERSITY, priority 2023, dated 2026) are described below.

The term EC50 denotes the midpoint of the concentration-response curve.

Where two headings read alike, the source gives them in different places. Where only a bound is given, the exact number is not on record here.

One assay relates to GBM0308 CSCs. The assay is described as follows: Dose-response killing of GBM CSCs (PI/Hoechst, Celigo cytometer). The class given is cell-based. The note with it: for Emax / CSCs Max. observed efficacy (% dead cells): 72 h; for Emax: read-out: CSC Max. observed efficacy (% dead cells), Table 7; for CSCs Max. observed efficacy (% dead cells): up to 10 μM. The source says: (§1) The inventors first evaluated a cohort of seven rocaglate translation inhibitors (1, 3-7, and 9, FIG. 1A and Table 1, compounds 2 and 8 were not tested due to unavailability). To assay for compounds that selectively affect GBM CSCs, the inventors employed the patient-derived tumor-initiating cell (TIC) cell line […] that forms neurospheres (consisting exclusively of tumor-initiating cells or CSCs) when cultured in neurobasal (NBE) medium. Upon exposure to serum and growth factor withdrawal, however, the cell line differentiates, acquires a flattened morphology, and forms a non-CSC population.^20 Thus, compounds can be tested in parallel to assess their effect on GBM CSCs vs. GBM non-CSCs as separate populations with a clean and robust response. This approach has been previously used to perform RNAi-based genetic screens to identify modulators of CSCs.^20 In this study, GBM0308 cells, cultured in stem cell conditions to form CSCs or in medium containing serum to induce differentiation into a non-CSC population, were treated in parallel with compounds at varying doses. Three days post-treatment, propidium iodide (PI) and Hoechst staining were performed and quantified using a Celigo image cytometer. Hoechst dye stained all […] nucleated cells, while PI exclusively stained dead cells. Cell viability and the percentage of cell death were then determined.
(§2) Cell Culture: Glioblastoma stem cell lines GBM0308, BT145, and BT112 were cultured in neurobasal (NBE medium) containing N-2 and B-27 supplements, EGF, bFGF, L-glutamine, and Penicillin-Streptomycin), as described previously.^19 Adherent GBM cells were cultured in serum-containing DMEM media (Invitrogen) supplemented with 10% fetal bovine serum (Corning Cellgro™). Cells were incubated at 37° C. and 5% CO2 to allow neurosphere formation. For seeding and subculturing, the neurospheres were gently trypsinized with 0.025% trypsin to form a single-cell suspension.
(§3) Dose-Response Testing in GBM Cells: Briefly, on day 1, cells were seeded in triplicate. For CSCs, 1500 cells/well were plated in a low attachment 96-well plate with NBE media and incubated for 3 days at 37° C. and 5% CO2 to allow the formation of neurospheres. For non-CSCs, 3000 cells/well were plated in a 96-well plate with DMEM media supplemented with 10% FBS. Similarly, the assay plates were also incubated for the same duration. Compound treatments started on day 4. Each compound was resuspended in DMSO and then diluted to different concentrations in media to a final concentration of DMSO less than 1%. The compounds were added at concentrations of 10, 3.3, 1.11, 0.37, 0.12, 0.041, 0.013, and 0.004 µM, respectively. DMSO-treated cells served as a control. After 72 h incubation with the compounds, fluorescent stains, propidium iodide, and Hoechst 33342 (Life Technologies, Carlsbad, CA), were used to stain the GBM cells to determine cell viability. A staining solution in 1×PBS was prepared by mixing PI and Hoechst 33342 to working concentrations of 2.5 μM and 20 μM, respectively. 20 μL of this staining solution was added per well, and plates were incubated at 37° C. and 5% CO2 for 60 min. After incubation, plates were read by Celigo imaging cytometer using an inbuilt Celigo application; Cell Viability (Dead+Total). For the viability measurement, the total number of neurospheres/cells and dead neurospheres/cells in each well were counted by the cytometer. The percentage of PI+ cells was normalized to DMSO and plotted against the drug concentration to calculate the EC50 with a four-parameter, variable-slope dose-response curve with an upper constraint of <100% dead cells and a lower constraint of =0% dead cells (GraphPad Prism v.10.0.0). For all dose response experiments, the experimental maximal efficacy (maximum observed % cell death) is reported. Relative EC50 values are reported for all compounds killing >50% of cells.

A further assay relates to GBM0308 non-CSCs. The assay is described as follows: Dose-response killing of GBM non-CSCs (PI/Hoechst, Celigo cytometer). The class given is cell-based. The settings on record: for Emax / EC50: Homo sapiens; for Emax / Non-CSCs Max. observed efficacy (% dead cells): 72 h; for Emax: read-out: Non-CSC Max. observed efficacy (% dead cells), Table 7, cell line not given; for EC50: read-out: Non-CSC EC50 (μM); for Non-CSCs Max. observed efficacy (% dead cells): Table 1, GBM0308 non-CSCs, up to 10 μM.
Description: as §1, §2, §3

For the next assay, the system named is eIF4A paralogs (eIF4A1). Description: PISA assay in GBM0308 cell lysates, eIF4A. The class given is binding, human. The note with it: GBM0308 lysate, compound 10 μM, AMP-PNP and (AG)8 RNA added. The source says:
(§4) Derivatization-free target identification using a modified proteome integral solubility alteration (PISA) assay. The inventors next pursued proteome-wide target identification to better understand the target profiles of CSC-selective rocaglates. To enable cross-compound comparisons of target engagement, the inventors opted to use the Proteome Integral Solubility Alteration (PISA) assay,^29 a derivative of the mass spectrometry-based Cellular Thermal Shift Assay (MS-CETSA). In MS-CETSA,^30,31 target engagement is inferred through proteome-wide analysis of compound-induced changes to protein thermal stability; proteins with a shift in their half-maximal thermal denaturation temperature upon compound treatment are flagged as potential targets. The PISA assay obviates the need for MS-CETSA-derived thermal denaturation curves through curve integration by pooling of individual temperature points into a single “integral” sample for each treatment condition, thereby increasing throughput (FIG. 9). In contrast to MS-CETSA (which relies on curve comparisons), PISA determinations are performed by simply comparing soluble protein abundance levels between compound- and DMSO-treated samples. Importantly, protein fold-change measurements in PISA experiments generally scale with the thermal shift derived from CETSA experiments, and the magnitude of a thermal shift can inform on relative affinity between compounds and individual targets.^30,32-25 Maximal stability changes are protein-specific,^36 however, precluding estimations of preference for one target over another. Thus, PISA allows for simultaneous target profiling and comparisons of binding affinity between different compounds within a given target.
(§5) Of note, we also detected stabilization of DDX3Y, a paralog which shares >90% sequence similarity with DDX3X.
PISA assay in GBM0308 cell lysates: The PISA assay was performed in lysates as described by Gaetani and coworkers^S2 with slight modification. Pelleted GBM0308 cells were resuspended in ice-cold lysis buffer (1×PBS pH 7.4, 2 mM MgCl2, 0.5 mM AMP-PNP, 1 μM (AG)8 RNA, HALT protease inhibitor cocktail EDTA-free) and subjected to three freeze-thaw cycles with liquid nitrogen to extract lysate proteins. Thawing was performed at room temperature until ˜80% thawed, then completed on ice. Lysate was clarified by centrifugation for 10 minutes at 20,000 RCF and 4° C., transferred to a fresh Eppendorf tube, then centrifuged again for 10 minutes at 20,000 RCF and 4° C. to ensure removal of debris. Lysate concentration was determined using a Pierce BCA Protein Assay Kit and adjusted to 2.0 mg/mL in lysis buffer. Lysate was mixed 1:1 with a 2× solution of test compound or DMSO in lysis buffer, gently aspirated to ensure proper mixing, and incubated at room temperature for 10 minutes. […]

A further assay deals with T1, DDX3X (Homo sapiens, UniProt O00571).
T1 construct: endogenous in cells; host or cells: GBM0308 glioblastoma stem cells (lysate)
Description: PISA assay in GBM0308 cell lysates, DDX3X. The class given is binding. The settings on record: GBM0308 lysate, compound 10 μM, AMP-PNP and (AG)8 RNA added.
Description: as §4, §5
PISA assay in GBM0308 cell lysates: The PISA assay was performed in lysates as described by Gaetani and coworkers^S2 with slight modification. […] Lysate concentration was determined using a Pierce BCA Protein Assay Kit and adjusted to 2.0 mg/mL in lysis buffer. […]

Where [1] appears, read: Homo sapiens, cell line not given.
The mark [2] stands for this setting: Homo sapiens, read-out: CSC EC50 (μM), Table 7, cell line not given.
Where [3] appears, read: Table 1, GBM0308 CSCs, 72 h treatment, relative EC50, given for compounds causing at least 50% cell death, read-out: CSCs EC50.

T1 sequence (O00571 whole entry): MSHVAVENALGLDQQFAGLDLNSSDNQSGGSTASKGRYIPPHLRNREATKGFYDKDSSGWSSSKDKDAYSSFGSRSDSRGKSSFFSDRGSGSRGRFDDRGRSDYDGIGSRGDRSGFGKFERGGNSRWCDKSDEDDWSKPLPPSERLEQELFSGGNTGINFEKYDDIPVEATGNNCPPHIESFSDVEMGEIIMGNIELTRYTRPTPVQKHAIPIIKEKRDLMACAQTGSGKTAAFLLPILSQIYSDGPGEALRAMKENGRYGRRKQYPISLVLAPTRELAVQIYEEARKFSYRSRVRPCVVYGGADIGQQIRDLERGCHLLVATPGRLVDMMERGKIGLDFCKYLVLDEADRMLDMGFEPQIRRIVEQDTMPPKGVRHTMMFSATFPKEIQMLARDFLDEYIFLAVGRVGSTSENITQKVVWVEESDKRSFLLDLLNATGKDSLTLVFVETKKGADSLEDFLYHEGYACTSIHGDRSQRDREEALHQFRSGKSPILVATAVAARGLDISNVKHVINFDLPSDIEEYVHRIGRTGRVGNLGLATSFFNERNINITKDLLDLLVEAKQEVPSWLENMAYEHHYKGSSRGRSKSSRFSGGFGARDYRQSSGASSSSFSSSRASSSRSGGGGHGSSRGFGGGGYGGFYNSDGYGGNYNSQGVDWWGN

Consider `COc1cc(OC)c2c(c1)O[C@@]1(c3ccc(Cl)cc3)[C@H](c3ccccc3)[C@@H](C(=O)NS(=O)(=O)N(C)C)[C@@H](O)[C@@]21O` [ZW-12-31, (1R,2R,3S,3aR,8bS)-3a-(4-chlorophenyl)-N—(N,N-dimethylsulfamoyl)-1,8b-dihydroxy-6,8-dimethoxy-3-phenyl-2,3,3a,8b-tetrahydro-1H-cyclopenta[b]benzofuran-2-carboxamide], for which the Emax in the assay with GBM0308 CSCs (setting [1]) worked out at 72%; in the assay on GBM0308 non-CSCs it was 25%. In addition, in the assay with GBM0308 CSCs (setting [2]), the EC50 was 0.693 µM.
As for `COc1cc(OC)c2c(c1)O[C@@]1(c3ccc(Br)cc3)[C@H](c3ccccc3)[C@@H](C(=O)NS(=O)(=O)N(C)C(C)C)[C@@H](O)[C@@]21O` [ZW-12-34, (1R,2R,3S,3aR,8bS)-3a-(4-bromophenyl)-1,8b-dihydroxy-N—(N-isopropyl-N-methylsulfamoyl)-6,8-dimethoxy-3-phenyl-2,3,3a,8b-tetrahydro-1H-cyclopenta[b]benzofuran-2-carboxamide], the Emax in the assay on GBM0308 CSCs (setting [1]) came out at 79%; in the assay with GBM0308 non-CSCs, 18%. Moreover, in the assay on GBM0308 CSCs (setting [2]), the EC50 was found to be 1.85 µM.
In the same order, the values of `CCN(CC)S(=O)(=O)NC(=O)[C@H]1[C@@H](O)[C@@]2(O)c3c(OC)cc(OC)cc3O[C@@]2(c2ccc(Br)cc2)[C@@H]1c1ccccc1` [ZW-12-35, (1R,2R,3S,3aR,8bS)-3a-(4-bromophenyl)-N—(N,N-diethylsulfamoyl)-1,8b-dihydroxy-6,8-dimethoxy-3-phenyl-2,3,3a,8b-tetrahydro-1H-cyclopenta[b]benzofuran-2-carboxamide] are 92%, 16% and 1.18 µM.
Consider `COc1cc(OC)c2c(c1)O[C@@]1(c3ccc(Br)cc3)[C@H](c3ccccc3)[C@@H](C(=O)NS(=O)(=O)N3CC(C)C3)[C@@H](O)[C@@]21O` [ZW-12-36, (1R,2R,3S,3aR,8bS)-3a-(4-bromophenyl)-1,8b-dihydroxy-6,8-dimethoxy-N-((3-methylazetidin-1-yl)sulfonyl)-3-phenyl-2,3,3a,8b-tetrahydro-1H-cyclopenta[b]benzofuran-2-carboxamide], for which the values for the Emax in the assay with GBM0308 CSCs (setting [1]) and with GBM0308 non-CSCs were 96% and 11%, respectively. For the same molecule, the EC50 in the assay on GBM0308 CSCs (setting [2]) is 0.804 µM.
Turning to `COc1cc(OC)c2c(c1)O[C@@]1(c3ccc(Br)cc3)[C@H](c3ccccc3)[C@@H](C(=O)NS(=O)(=O)N3CCCC3)[C@@H](O)[C@@]21O` [ZW-12-37, (1R,2R,3S,3aR,8bS)-3a-(4-bromophenyl)-1,8b-dihydroxy-6,8-dimethoxy-3-phenyl-N-(pyrrolidin-1-ylsulfonyl)-2,3,3a,8b-tetrahydro-1H-cyclopenta[b]benzofuran-2-carboxamide], the Emax came out at 95% in the assay with GBM0308 CSCs (setting [1]) and 25% in the assay with GBM0308 non-CSCs. The half-maximal effective concentration (EC50) in the assay with GBM0308 CSCs (setting [2]) is 0.7 µM; in the assay with GBM0308 non-CSCs it was 0.401 µM.
In the same order, the values of `COc1cc(OC)c2c(c1)O[C@@]1(c3ccc(Br)cc3)[C@H](c3ccccc3)[C@@H](C(=O)NS(=O)(=O)N3CCOCC3)[C@@H](O)[C@@]21O` [ZW-12-38, (1R,2R,3S,3aR,8bS)-3a-(4-bromophenyl)-1,8b-dihydroxy-6,8-dimethoxy-N-(morpholinosulfonyl)-3-phenyl-2,3,3a,8b-tetrahydro-1H-cyclopenta[b]benzofuran-2-carboxamide] are 95%, 19%, 0.7 µM and 0.463 µM.
With aglaroxin C [rac-4, reference compound], the “CSCs Max. observed efficacy (% dead cells)” value in the assay on GBM0308 CSCs (Table 1, GBM0308 CSCs) is listed as 42%; in the assay with GBM0308 CSCs (Table 1, GBM0308 CSCs, listed as 4), at most 50%. For the same molecule, the “Non-CSCs Max. observed efficacy (% dead cells)” value in the assay on GBM0308 non-CSCs came out at 26%.
For the molecule “methyl rocaglate [(−)-3, reference compound]”, the “CSCs Max. observed efficacy (% dead cells)” value in the assay on GBM0308 CSCs (Table 1, GBM0308 CSCs) was determined as 75%. For the same molecule, the EC50 with GBM0308 CSCs (setting [3]) stood at 1.64 µM. Besides, the “Non-CSCs Max. observed efficacy (% dead cells)” value in the assay with GBM0308 non-CSCs stood at 23%.
For “rocaglamide A [(−)-1, reference compound]”, in the assay on GBM0308 CSCs (Table 1, GBM0308 CSCs), the “CSCs Max. observed efficacy (% dead cells)” value stood at 84%. In the assay with GBM0308 CSCs (setting [3]), the half-maximal effective concentration (EC50) stood at 0.387 µM. In the assay on GBM0308 non-CSCs, the “Non-CSCs Max. observed efficacy (% dead cells)” value is on record as 31%. In addition, in the assay on eIF4A paralogs (eIF4A1), the “thermal stabilization of eIF4A paralogs (PISA), in words” value is reported as “thermal stabilization”. On DDX3X, the “thermal stabilization of DDX3X (PISA), in words” value is “thermal stabilization”.
